From US20190134005A1 (BioMarin Pharmaceutical Inc., priority 2016, published 2019)

Target: T1, human CGT (Homo sapiens, UniProt Q16880)
T1 sequence (Q16880 21-541): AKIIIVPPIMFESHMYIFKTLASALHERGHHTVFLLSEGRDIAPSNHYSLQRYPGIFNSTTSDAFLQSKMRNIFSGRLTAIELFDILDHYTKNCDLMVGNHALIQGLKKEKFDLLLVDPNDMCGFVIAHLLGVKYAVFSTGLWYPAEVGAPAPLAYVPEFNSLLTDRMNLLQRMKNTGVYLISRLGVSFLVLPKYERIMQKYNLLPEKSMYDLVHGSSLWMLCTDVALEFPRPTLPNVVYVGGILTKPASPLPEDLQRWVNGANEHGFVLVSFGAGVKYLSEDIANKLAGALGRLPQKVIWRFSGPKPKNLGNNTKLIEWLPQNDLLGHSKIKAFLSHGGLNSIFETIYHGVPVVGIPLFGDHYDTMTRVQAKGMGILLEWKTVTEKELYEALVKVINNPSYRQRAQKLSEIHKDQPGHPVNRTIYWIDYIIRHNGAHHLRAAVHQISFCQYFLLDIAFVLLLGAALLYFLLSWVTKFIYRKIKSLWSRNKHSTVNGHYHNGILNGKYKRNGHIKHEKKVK
Test: Assay 1: CGT Enzymatic Assay (RapidFire/MS/MS, 0.01% Tween 80)
Format: biochemical
Details: Table 1, Compounds of Formula (I) and Formula (II); CGT enzymatic assay, C6-NBD-dihydro-galactosylceramide readout; read-out: IC50

| Compound | IC50 [nM] |
| --- | --- |
| CC1(C)N(c2ccc(Cl)cc2)C(=O)N(c2ccc(Cl)cc2)C1(O)c1cccc(C2CCO2)c1 (stereo not shown) [Example 324-1, 1,3-bis(4-chlorophenyl)-4-hydroxy-5,5-dimethyl-4-(3-(oxetan-2-yl)phenyl)imidazolidin-2-one] | < 1000 |
| CC[C@]1(C)N(c2ccc(C#N)cc2)C(=O)N(c2ccc(C#N)cc2)C1(O)c1cccc(OC(F)(F)F)c1 (stereo partly drawn) [Example 319-2, 4′-((4S)-4-ethyl-5-hydroxy-4-methyl-2-oxo-5-(3-(trifluoromethoxy)phenyl)imidazolidine-1,3-diyl)dibenzonitrile] | < 1000 |

Same assay, conditions: Table 1, Compounds of Formula (I) and Formula (II); CGT enzymatic assay; read-out: IC50

| Compound | IC50 [nM] |
| --- | --- |
| C[C@@H]1N(c2ccc(Cl)cc2)C(=O)N(c2ccc(Cl)cc2)C1(O)c1cccc(Br)c1 (stereo partly drawn) [Compound 94-1, (5S)-4-(3-bromophenyl)-1,3-bis(4-chlorophenyl)-4-hydroxy-5-methylimidazolidin-2-one] | < 1000 |
| CCCC1N(c2ccc(Cl)cc2)C(=O)N(c2ccc(Cl)cc2)C1(O)c1cccc(C)c1 (stereo not shown) [Compound 90, 1,3-bis(4-chlorophenyl)-4-hydroxy-5-propyl-4-(m-tolyl)imidazolidin-2-one] | < 1000 |
| O=C1N(c2ccc(Br)cc2)C(=O)C(O)(c2cc3ccccc3o2)N1c1ccc(Br)cc1 (stereo not shown) [Example 213, 5-(benzofuran-2-yl)-1,3-bis(4-bromophenyl)-5-hydroxyimidazolidine-2,4-dione] | > 50000 |
| Cc1ccc(N2C(=O)N(c3ccc(C)cc3)C(O)(c3cccc(C#N)c3)[C@@H]2C)cc1 (single isomer, unassigned) [Compound 105-1] | 1000 to 10000 |
| CCC1(O)CN(c2ccc(Cl)cc2)C(=O)N1c1ccc(Cl)cc1 (stereo not shown) [Example 56, 1,3-bis(4-chlorophenyl)-4-ethyl-4-hydroxyimidazolidin-2-one] | > 50000 |
| N#Cc1cccc(C2(O)[C@@H](C3CCC3)N(c3ccc(Cl)cc3)C(=O)N2c2ccc(Cl)cc2)c1 (stereo partly drawn) [Example 194-2, 3-((5R)-1,3-bis(4-chlorophenyl)-5-cyclobutyl-4-hydroxy-2-oxoimidazolidin-4-yl)benzonitrile] | < 1000 |
| CC1N(c2ccc(Cl)cc2)C(=O)N(c2ccc(Cl)cc2)C1(O)c1cccc(OC(F)(F)F)c1 (stereo not shown) [Compound 129, 1,3-bis(4-chlorophenyl)-4-hydroxy-5-methyl-4-(3-(trifluoromethoxy)phenyl)imidazolidin-2-one] | < 1000 |
| O=C1N(c2ccc(Cl)cc2)C(C2CC2)C(O)(c2cccc(OC(F)F)c2)N1c1ccc(Cl)cc1 (stereo not shown) [Compound 233, 1,3-bis(4-chlorophenyl)-5-cyclopropyl-4-(3-(difluoromethoxy)phenyl)-4-hydroxyimidazolidin-2-one] | < 1000 |
| CCC1N(c2ccc(Br)cc2)C(=O)N(c2ccc(Br)cc2)C1(O)c1cccc(OC(F)(F)F)c1 (stereo not shown) [Compound 83, 1,3-bis(4-bromophenyl)-5-ethyl-4-hydroxy-4-(3-(trifluoromethoxy)phenyl)imidazolidin-2-one] | < 1000 |
| C[C@@H]1N(c2ccc(Cl)cc2)C(=O)N(c2ccc(Cl)cc2)C1(O)c1cccc(C(F)(F)F)c1 (single isomer, unassigned) [Compound 77-1] | < 1000 |
| Cc1cccc(C2(O)[C@H](C)N(c3ccc(Cl)cc3)C(=O)N2c2ccc(Cl)cc2)c1 (stereo partly shown) [Example 36-1] | < 1000 |
| C#Cc1cccc(C2(O)[C@@H](C)N(c3ccc(Cl)cc3)C(=O)N2c2ccc(Cl)cc2)c1 (stereo partly drawn) [Compound 93-2, (5R)-1,3-bis(4-chlorophenyl)-4-(3-ethynylphenyl)-4-hydroxy-5-methylimidazolidin-2-one] | < 1000 |
| O=C1N(c2ccc(Br)cc2)C(=O)C(O)(c2ccc(Cl)s2)N1c1ccc(Br)cc1 (stereo not shown) [Example 197, 1,3-bis(4-bromophenyl)-5-(5-chlorothiophen-2-yl)-5-hydroxyimidazolidine-2,4-dione] | 10000 to 50000 |
| Cc1ccc(N2C(=O)N(c3ccc(C)cc3)C(O)(c3cccc(OC(F)(F)F)c3)C2C(C)C)cc1 (stereo not shown) [Compound 235, 4-hydroxy-5-isopropyl-1,3-di-p-tolyl-4-(3-(trifluoromethoxy)phenyl)imidazolidin-2-one] | < 1000 |
